Experimental data reported in patent US20040235932A1, “Ophthalmic pharmaceutical compositions” (priority 2001, published 2004).
“Also recorded” adds a separate entry of the source.

Experiments:
[1] = tested on: Dutch male colored rabbits; assay: Activity to reduce intraocular pressure on continuous eye drop administration in rabbits; assay type: in vivo, rabbit; details: for Difference in intraocular pressure after the administration: test eye vs control eye, mean±S.E.; for time of maximum reduction in intraocular pressure after the administration: all determination days to the 57th day
Procedure: KRG-3332 as prepared in Reference Example 2 was dissolved in physiological saline to prepare a 0.01% solution, which was used as test solution 1 (0.01% eye drop) in the following method for determining the activity to reduce intraocular pressure. […] For the administration of eye drop, each 50 ρL of the test solution and the control (physiological saline) was administered to one eye and the other eye respectively, twice a day (11:00 and 19:00), and the administration continued for up to 57 days. The corneal surfaces of the animals were anaesthetized with 0.4% oxybuprocaine hydrochloride eye drop to, and the intraocular pressure was determined at time points of 11:00 (before the administration), 13:00(2 hours after the administration), 15:00 (4 hours after the administration) and 19:00 (8 hours after the administration, immediately before the second administration) one day before the administration and thereafter every week using an air applanation ophthalmotonometer (ALCON JAPAN LTD.). Average (mean±S.E.) of the difference between the intraocular pressures of eyes administered with the test solution and the control as determined at each time point, and the relevant t-test results were estimated. KRG-3332 was dissolved in physiological saline to prepare a 0.1% solution, which was used as test solution 2 (0.1% eye drop) in the determination of the activity to reduce intraocular pressure in a similar manner to above (1). For the comparison, bunazosin hydrochloride was dissolved in physiological saline to prepare a 0.03% solution, which was used as test solution 3 (reference drug, 0.03% eye drop of bunazosin hydrochloride) in the determination of the activity to reduce intraocular pressure in a similar manner to above (1) and (2).

[2] = tested on: patients suffering from primary closed angle glaucoma and ocular hypertension; details: 0.05% eye drop, continuous administration; cited from earlier work
human variant α1 A-AR = target: T1, human variant α1 A-AR (Homo sapiens, UniProt P35348, A271T); assay: Effects on expression level of α1 A-AR in CHO cells expressing variant α1 A-AR ([3H]-prazosin binding to membrane fractions); details: CHO cells expressing variant α1 A-AR cultured 48 hours with test drug 10^−8 M (mixture: each 10^−8 M)
T1 sequence (P35348 1-466 A271T): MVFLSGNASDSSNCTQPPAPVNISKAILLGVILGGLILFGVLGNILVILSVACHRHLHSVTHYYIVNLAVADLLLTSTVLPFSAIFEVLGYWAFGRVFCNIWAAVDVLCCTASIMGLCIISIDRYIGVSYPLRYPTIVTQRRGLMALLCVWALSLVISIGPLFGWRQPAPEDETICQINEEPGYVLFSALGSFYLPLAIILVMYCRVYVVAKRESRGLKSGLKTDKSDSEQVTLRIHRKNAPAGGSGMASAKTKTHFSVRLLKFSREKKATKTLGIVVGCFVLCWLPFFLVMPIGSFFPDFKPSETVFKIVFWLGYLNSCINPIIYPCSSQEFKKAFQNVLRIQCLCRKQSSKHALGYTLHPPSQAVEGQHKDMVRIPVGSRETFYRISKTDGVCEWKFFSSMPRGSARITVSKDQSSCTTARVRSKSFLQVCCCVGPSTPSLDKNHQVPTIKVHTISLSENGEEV
Procedure: The wild or variant α1 A-AR gene was incorporated into mammalian expression vector pCR3 (Invitrogen Inc.) using restriction enzyme EcoRI, and the vector was transfected into CHO cells with Lipofectamin (GIBCO Inc.).
The membrane fractions (about 20 μg protein/tube) were incubated in the presence of [^3 H]-prazosin (NEN Inc.) (30 to 200 μM) at 30° C. for 45 minutes, and then harvested on GF/C filter (Whatman Inc.) using a cell collecting apparatus (m-36T, Brandel Inc.). The filter was washed with 50 mM Tris-HCl buffer (pH7.4) several times, and then the radioactivity bound on the membrane was determined using a liquid scintillation counter. […] The experimental data was analyzed using nonlinear approximate program PRISM (trade mark) (Graphpad Software Inc.) to calculate the expression level of the receptor.

[3] = tested on: patients suffering from ocular hypertension; details: cited from earlier work

SMILES: CCOc1ccccc1OCCN[C@H](C)Cc1cc(C(N)=O)c2c(ccn2CCCOC(=O)C(C)(C)C)c1.Cl [KRG-3332, (R)-3-[7-carbamoyl-5-[2-[[2-(2-ethoxyphenoxy)ethyl]amino]propyl]-1H-indol-1-yl]propyl pivalate hydrochloride]
- development of drug resistance (change in activity to reduce intraocular pressure by continuous administration) ([1]; 0.01% and 0.1% eye drops twice a day for up to 57 days): no development of drug resistance
- Difference in intraocular pressure after the administration ([1]; 0.01% eye drop, 1st day, 0 hours after the administration): 0.050 ± 0.398 mmHg
- Difference in intraocular pressure after the administration ([1]; 0.01% eye drop, 1st day, 8 hours after the administration): −0.400 ± 0.392 mmHg
- Difference in intraocular pressure after the administration ([1]; 0.01% eye drop, 8th day, 0 hours after the administration): −0.200 ± 0.242 mmHg
- Difference in intraocular pressure after the administration ([1]; 0.01% eye drop, 15th day, 4 hours after the administration): −1.600 ± 0.882 mmHg
- Difference in intraocular pressure after the administration ([1]; 0.01% eye drop, 15th day, 8 hours after the administration): −0.350 ± 0.828 mmHg
- Difference in intraocular pressure after the administration ([1]; 0.01% eye drop, 22nd day, 0 hours after the administration): −0.850 ± 0.589 mmHg
- Difference in intraocular pressure after the administration ([1]; 0.01% eye drop, 22nd day, 8 hours after the administration): −0.550 ± 0.348 mmHg
- Difference in intraocular pressure after the administration ([1]; 0.01% eye drop, 29th day, 8 hours after the administration): −0.400 ± 0.392 mmHg
- Difference in intraocular pressure after the administration ([1]; 0.01% eye drop, 36th day, 0 hours after the administration): −0.500 ± 0.447 mmHg
- Difference in intraocular pressure after the administration ([1]; 0.01% eye drop, 36th day, 4 hours after the administration): −1.349 ± 0.831 mmHg
- Difference in intraocular pressure after the administration ([1]; 0.01% eye drop, 36th day, 8 hours after the administration): −1.250 ± 0.818 mmHg
- Difference in intraocular pressure after the administration ([1]; 0.01% eye drop, 43rd day, 0 hours after the administration): −0.150 ± 0.491 mmHg
- Difference in intraocular pressure after the administration ([1]; 0.01% eye drop, 43rd day, 8 hours after the administration): 0.100 ± 0.376 mmHg
- Difference in intraocular pressure after the administration ([1]; 0.01% eye drop, 50th day, 0 hours after the administration): −0.400 ± 0.430 mmHg
- Difference in intraocular pressure after the administration ([1]; 0.01% eye drop, 50th day, 8 hours after the administration): −0.900 ± 0.551 mmHg
- Difference in intraocular pressure after the administration ([1]; 0.01% eye drop, 57th day, 0 hours after the administration): 0.050 ± 0.366 mmHg
- Difference in intraocular pressure after the administration ([1]; 0.01% eye drop, 57th day, 8 hours after the administration): −0.150 ± 0.400 mmHg
- time of maximum reduction in intraocular pressure after the administration ([1]; 0.01% eye drop): 2 h
- Difference in intraocular pressure after the administration ([1]; 0.1% eye drop, 1st day, 0 hours after the administration): 0.000 ± 0.285 mmHg
- Difference in intraocular pressure after the administration ([1]; 0.1% eye drop, 8th day, 0 hours after the administration): −1.050 ± 0.619 mmHg
- Difference in intraocular pressure after the administration ([1]; 0.1% eye drop, 15th day, 0 hours after the administration): −1.350 ± 0.944 mmHg
- Difference in intraocular pressure after the administration ([1]; 0.1% eye drop, 15th day, 8 hours after the administration): −1.700 ± 0.917 mmHg
- Difference in intraocular pressure after the administration ([1]; 0.1% eye drop, 36th day, 0 hours after the administration): −1.050 ± 0.878 mmHg
- Difference in intraocular pressure after the administration ([1]; 0.1% eye drop, 43rd day, 8 hours after the administration): −2.250 ± 0.862 mmHg
- Difference in intraocular pressure after the administration ([1]; 0.1% eye drop, 50th day, 0 hours after the administration): −0.600 ± 0.801 mmHg
- Difference in intraocular pressure after the administration ([1]; 0.1% eye drop, 50th day, 4 hours after the administration): −1.950 ± 0.756 mmHg
- Difference in intraocular pressure after the administration ([1]; 0.1% eye drop, 50th day, 8 hours after the administration): −1.150 ± 0.573 mmHg
- Difference in intraocular pressure after the administration ([1]; 0.1% eye drop, 57th day, 0 hours after the administration): −1.500 ± 0.822 mmHg
- time of maximum reduction in intraocular pressure after the administration ([1]; 0.1% eye drop): 2 h

SMILES: CCCC(=O)N1CCCN(c2nc(N)c3cc(OC)c(OC)cc3n2)CC1.Cl [bunazosin hydrochloride, 1-(4-amino-6,7-dimethoxy-2-quinazolinyl)-4-butyrylhexahydro-1H-1,4-diazepin hydrochloride, reference compound]
- development of drug resistance (change in activity to reduce intraocular pressure by continuous administration) ([1]; 0.03% eye drop twice a day, up to 29th day, hydrochloride): any difference from the eyes administered with the control was hardly observed on the 22nd day; also recorded: any reduction in intraocular pressure was hardly observed on the 22nd day
- Difference in intraocular pressure after the administration ([1]; 0.03% eye drop, 1st day, 0 hours after the administration): 0.700 ± 0.320 mmHg
- Difference in intraocular pressure after the administration ([1]; 0.03% eye drop, 1st day, 4 hours after the administration): −1.700 ± 1.452 mmHg
- Difference in intraocular pressure after the administration ([1]; 0.03% eye drop, 1st day, 8 hours after the administration): 0.150 ± 0.947 mmHg
- Difference in intraocular pressure after the administration ([1]; 0.03% eye drop, 8th day, 0 hours after the administration): 0.600 ± 0.579 mmHg
- Difference in intraocular pressure after the administration ([1]; 0.03% eye drop, 8th day, 4 hours after the administration): −0.950 ± 1.176 mmHg
- Difference in intraocular pressure after the administration ([1]; 0.03% eye drop, 8th day, 8 hours after the administration): −0.350 ± 0.430 mmHg
- Difference in intraocular pressure after the administration ([1]; 0.03% eye drop, 15th day, 0 hours after the administration): 0.100 ± 0.562 mmHg
- Difference in intraocular pressure after the administration ([1]; 0.03% eye drop, 15th day, 2 hours after the administration): −1.450 ± 0.804 mmHg
- Difference in intraocular pressure after the administration ([1]; 0.03% eye drop, 15th day, 4 hours after the administration): −0.250 ± 0.494 mmHg
- Difference in intraocular pressure after the administration ([1]; 0.03% eye drop, 15th day, 8 hours after the administration): −0.100 ± 0.150 mmHg
- Difference in intraocular pressure after the administration ([1]; 0.03% eye drop, 22nd day, 0 hours after the administration): −0.050 ± 0.567 mmHg
- Difference in intraocular pressure after the administration ([1]; 0.03% eye drop, 22nd day, 2 hours after the administration): −0.250 ± 0.576 mmHg
- Difference in intraocular pressure after the administration ([1]; 0.03% eye drop, 22nd day, 4 hours after the administration): −0.200 ± 0.330 mmHg
- Difference in intraocular pressure after the administration ([1]; 0.03% eye drop, 22nd day, 8 hours after the administration): 0.350 ± 0.150 mmHg
- Difference in intraocular pressure after the administration ([1]; 0.03% eye drop, 29th day, 0 hours after the administration): 0.300 ± 1.011 mmHg
- Difference in intraocular pressure after the administration ([1]; 0.03% eye drop, 29th day, 2 hours after the administration): −0.250 ± 0.652 mmHg
- Difference in intraocular pressure after the administration ([1]; 0.03% eye drop, 29th day, 4 hours after the administration): −0.500 ± 0.306 mmHg
- Difference in intraocular pressure after the administration ([1]; 0.03% eye drop, 29th day, 8 hours after the administration): −0.200 ± 0.289 mmHg
- attenuation in activity to reduce intraocular pressure [2]: initiate the attenuation in an activity to reduce intraocular pressure after 4-weeks continuous administration
- expression level of the α1 A-AR (receptor levels) (human variant α1 A-AR): induced the increase in the receptor levels about three times compared to the treatment with KRG-3333

SMILES: COC(=O)[C@H]1[C@H]2C[C@H]3c4[nH]c5ccccc5c4CCN3C[C@@H]2CC[C@@H]1O [corynanthine, methyl 17α-hydroxyyohimban-16β-carboxylate]
- activity for reducing intraocular pressure ([3]; concentrations of 2 to 5% in eye drops): demonstrated Lo have an activity for reducing intraocular pressure
- development of drug resistance ([3]; continued administration for a week): the continued administration thereof for a week developed drug resistance
